Values quoted from earlier work in patent publication US6673767B1, “Gel composition and methods” (Alza Corporation, priority 1996, dated 2004).

Settings: for Water Miscibility: solvent in water (Merck)

Row | Water Miscibility | reported solubility in water (solvent in water) | Compound
1 | insol. in water (Merck) | – | O=C(OCc1ccccc1)c1ccccc1 [Benzyl Benzoate, benzyl benzoate]
2 | 7% sol. in water (Merck) | 7.17 grams in 100 ml of water | CC(=O)OCC(COC(C)=O)OC(C)=O [Triacetin, triacetin]
3 | misc. with water (Merck) | – | CN1CCCC1=O [NMP, N-methyl-2-pyrrolidone]
